Data on 23 compounds can be found in patent US5843941A, “Ras farnesyl transferase inhibitors” (Genentech, Inc., priority 1994, dated 1998).

Molecules are shown by their SMILES. Like-named read-outs stand apart in the source and are kept apart here.

What is called EC50 is the concentration at which the effect is half-maximal.

The target in this experiment is CAAX farnesyltransferase (Rattus norvegicus, UniProt Q02293+Q04631). Nature of the experiment: In vitro inhibition of CAAX farnesyltransferase. In kind it is biochemical. Also on record: purified to homogeneity from rat brain homogenates; from tissue; host or cells: rat brain; alternatively recombinant enzyme from a baculovirus expression system. The note with it: Table D. The method, then:
All compounds were tested for in vitro inhibition of CAAX protein farnesyltransferase. […] Alternatively, recombinant CAAX protein farnesyltransferase was also used in this assay. […] Seventy-two hrs after infection, the cells were harvested and disrupted and the enzyme isolated by chromatography on Q-Sepharose.
After incubation for 30 min at 37° C., the amount of [3H]famesyl group transferred to p21H-ras was measured by precipitation with SDS/trichloroacetic acid, filtration onto nitrocellulose, and scintillation counting.
Structures of the compounds tested are reproduced below. Compound numbers also refer to example numbers above.

Where [1] appears, read: diastereomer A, read-out: EC50 (μM) "A".
Setting [2] is: diastereomer B, read-out: EC50 (μM) "B".

CAAX farnesyltransferase, sequence (Q02293 whole entry, one chain of several): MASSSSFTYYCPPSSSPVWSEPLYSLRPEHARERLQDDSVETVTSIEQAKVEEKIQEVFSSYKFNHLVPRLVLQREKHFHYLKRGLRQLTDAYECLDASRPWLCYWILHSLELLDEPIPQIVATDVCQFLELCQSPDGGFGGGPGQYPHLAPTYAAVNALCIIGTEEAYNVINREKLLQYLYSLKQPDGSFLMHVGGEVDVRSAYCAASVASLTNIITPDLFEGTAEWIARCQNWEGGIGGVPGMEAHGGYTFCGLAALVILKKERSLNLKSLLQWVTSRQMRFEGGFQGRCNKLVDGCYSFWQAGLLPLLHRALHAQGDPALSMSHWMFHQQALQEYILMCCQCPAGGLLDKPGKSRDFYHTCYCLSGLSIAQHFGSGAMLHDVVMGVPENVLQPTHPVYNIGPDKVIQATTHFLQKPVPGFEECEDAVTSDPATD

Regarding `CSCC[C@H](NC(=O)CN1C(=O)C(N(C)C(=O)[C@@H](N)CS)N=C(c2ccccc2)c2cc(Cl)ccc21)C(=O)O` (stereo partly drawn) [compound 67, N-[[3-[(2-amino-3-mercapto-1-oxopropyl)methylamino]-2,3-dihydro-2-oxo-5-phenyl-7-chloro-1H-1,4-benzodiazepin-1-yl]acetyl]-L-methionine], the EC50 reads like this: under setting [1], 0.31 µM; under setting [2], 0.0004 µM.

As for `CN(C(=O)[C@@H](N)CS)C1N=C(c2ccccc2)c2cc(Cl)ccc2N(CC(=O)N[C@@H](Cc2ccccc2)C(=O)O)C1=O` (stereo partly shown) [compound 68], the EC50 runs as follows: under setting [1], 0.14 µM; under setting [2], 0.0016 µM.

With `CN(C(=O)[C@@H](N)CS)C1N=C(c2ccccc2)c2cc(Cl)ccc2N(CC(=O)N[C@@H](Cc2ccccc2)C(N)=O)C1=O` (stereo partly drawn) [compound 69, N-[[3-[(2-amino-3-mercapto-1-oxopropyl)methylamino]-2,3-dihydro-2-oxo-5phenyl-7-chloro-1H-1,4-benzodiazepin-1-yl]acetyl]-L-phenylalanine amide], the EC50 by setting is: under setting [1], 1.5 µM; under setting [2], 0.0036 µM.

In the case of `CN(C(=O)[C@@H](N)CS)C1N=C(c2ccccc2)c2cc(Cl)ccc2N(CC(=O)N[C@@H](Cc2ccc(F)cc2)C(=O)O)C1=O` (stereo partly drawn) [compound 70, N-[[3-[(2-amino-3-mercapto-1-oxopropyl)methylamino]-2,3-dihydro-2-oxo-5-phenyl-7-chloro-1H-1,4-benzodiazepin-1-yl]acetyl]-L-4-fluoro-phenylalanine], the EC50 is, setting by setting: under setting [1], 0.13 µM; under setting [2], 0.0008 µM.

On to `CN(C(=O)[C@@H](N)CS)C1N=C(c2ccccc2)c2cc(Cl)ccc2N(CC(=O)N[C@H](C(=O)O)C2CCCCC2)C1=O` (stereo partly drawn) [compound 71, N-[[3-[(2-amino-3-mercapto-1-oxopropyl)methylamino]-2,3-dihydro-2-oxo-5-phenyl-7-chloro-1H-1,4-benzodiazepin-1-yl]acetyl]-L-(α-cyclohexyl)-glycine], for which the EC50 by setting is: under setting [1], 0.1 µM; under setting [2], 0.0007 µM.

With `CN(C(=O)[C@@H](N)CS)C1N=C(c2ccccc2)c2cc(Cl)ccc2N(CC(=O)N[C@H](C(N)=O)C2CCCCC2)C1=O` (stereo partly drawn) [compound 72, N-[[3-[(2-amino-3-mercapto-1-oxopropyl)methylamino]-2,3-dihydro-2-oxo-5-phenyl-7-chloro-1H-1,4-benzodiazepin-1-yl]acetyl]-L-(α-cyclohexyl)-glycine amide], the EC50 is 0.6 µM under setting [1] and 0.0017 µM under setting [2].

As to `CSCC[C@H](NC(=O)CN1C(=O)C(N(C)C(=O)[C@@H](N)CS)C=C(c2ccccc2F)c2cc(Cl)ccc21)C(=O)O` (stereo partly drawn) [compound 80, N-[[3-[(2-amino-3-mercapto-1-oxopropyl)methylamino]-2,3-dihydro-2-oxo-5-(2'-fluorophenyl)-7-chloro-1H-1,4-benzazepin-1-yl]acetyl]-L-methionine], the EC50 by setting is: under setting [1], 0.0003 µM; under setting [2], 0.0003 µM.

With `CSCC[C@H](NC(=O)CN1C(=O)C(N(C)C(=O)[C@@H](N)CS)N=C(c2ccccc2Cl)c2cc(Cl)ccc21)C(=O)O` (stereo partly drawn) [compound 81, N-[[3-[(2-amino-3-mercapto-1-oxopropyl)methylamino]-2,3-dihydro-2-oxo-5-(2'-chlorophenyl)-7-chloro-1H-1,4-benzodiazepin-1-yl]acetyl]-L-methionine], the EC50 under setting [1] turned out to be 0.43 µM and the concentration giving a half-maximal response (EC50) under setting [2] worked out at 0.0002 µM.

With `CSCC[C@H](NC(=O)CN1C(=O)C(N(C)C(=O)[C@@H](N)CS)N=C(c2ccccc2F)c2cc(Cl)ccc21)C(=O)O` (stereo partly drawn) [compound 82, N-[[3-[(2-amino-3-mercapto-1-oxopropyl)methylamino]-2,3-dihydro-2-oxo-5-(2'-fluorophenyl)-7-chloro-1H-1,4-benzodiazepin-1-yl]acetyl]-L-methionine], the 50% effective concentration (EC50) reads like this: under setting [1], 0.25 µM; under setting [2], 0.001 µM.

Turning to `CSCC[C@H](NC(=O)CN1C(=O)C(N(C)C(=O)[C@@H](N)CS)C=C(c2ccccc2)c2cc(Cl)ccc21)C(=O)O` (stereo partly drawn) [compound 83, N-[[3-[(2-amino-3-mercapto-1-oxopropyl)methylamino]-2,3-dihydro-2-oxo-5-phenyl-7-chloro-1H-1,4-benzazepin-1-yl]acetyl]-L-methionine], the concentration giving a half-maximal response (EC50) under setting [2] turned out to be 0.0007 µM.

In the case of `CSCC[C@H](NC(=O)CN1C(=O)C(N(C)C(=O)[C@@H](N)CS)C=C(c2ccccc2Cl)c2cc(Cl)ccc21)C(=O)O` (stereo partly shown) [compound 92], the EC50 reads like this: under setting [1], 0.001 µM; under setting [2], 0.001 µM.

On to `CN(C(=O)C(N)CS)C1N=C(c2ccccc2)c2ccccc2N(Cc2cccc(C#N)c2)C1=O` (stereo not shown) [compound 93, N-[[3-[(2-amino-3-mercapto-1-oxopropyl)methylamino]-2,3-dihydro-2-oxo-5-phenyl-1H-1,4-benzodiazepin-1-yl]methyl]-3-benzonitrile], for which the EC50 was found to be 0.82 µM under setting [1] and 0.004 µM under setting [2].

In the case of `COC(=O)c1cccc(CN2C(=O)C(N(C)C(=O)C(N)CS)N=C(c3ccccc3)c3ccccc32)c1` (stereo not shown) [compound 94, N-[[3-[(2-amino-3-mercapto-1-oxopropyl)methylamino]-2,3-dihydro-2-oxo-5-phenyl-1H-1,4-benzodiazepin-1-yl]methyl]-3-carboxymethylbenzene], the EC50 under setting [1] came out at 0.82 µM and the EC50 under setting [2] was 0.0042 µM.

As to `CN(C(=O)C(N)CS)C1N=C(c2ccccc2)c2ccccc2N(Cc2cccc(C(=O)O)c2)C1=O` (stereo not shown) [compound 95, N-[[3-[(2-amino-3-mercapto-1-oxopropyl)methylamino]-2,3-dihydro-2-oxo-5-phenyl-1H-1,4-benzodiazepin-1-yl]methyl]-3-carboxybenzene], the EC50 turned out to be 0.88 µM under setting [1] and 0.0066 µM under setting [2].

As to `CN(C(=O)C(N)CS)C1N=C(c2ccccc2)c2ccccc2N(Cc2cccc(-c3nnn[nH]3)c2)C1=O` (stereo not shown) [compound 96, N-[[3-[(2-amino-3-mercapto-1-oxopropyl)methylanino]-2,3-dihydro-2-oxo-5-phenyl-1H-1,4benzodiazepin-1-yl]methyl]-3-tetrazolylbenzene], the concentration giving a half-maximal response (EC50) turned out to be 0.23 µM under setting [1] and 0.0013 µM under setting [2].

On to `COC(=O)c1cccc(CN2C(=O)C(N(C)C(=O)[C@@H](N)CS)N=C(c3ccccc3)c3cc(Cl)ccc32)c1` (stereo partly shown) [compound 97, N-[[3-[(2-amino-3-mercapto-1-oxopropyl)methylamino]-2,3-dihydro-2-oxo-5-phenyl-7-chloro-1H-1,4-benzodiazepin-1-yl]methyl]-3-carboxymethylbenzene], for which the 50% effective concentration (EC50) under setting [2] was 0.0003 µM.

As to `CN(C(=O)[C@@H](N)CS)C1N=C(c2ccccc2)c2ccccc2N(Cc2ccc(-c3ccccc3-c3nnn[nH]3)cc2)C1=O` (stereo partly shown) [compound 98, N-[[3-[(2-amino-3-mercapto-1-oxopropyl)methylamino]-2,3-dihydro-2-oxo-5-phenyl-1H-1,4-benzodiazepin-1-yl]methyl]-4-(2-tetrazolylphenyl) benzene], the EC50 was 0.84 µM under setting [1] and 0.006 µM under setting [2].

On to `Cc1cccc(CN2C(=O)C(N(C)C(=O)[C@@H](N)CS)N=C(c3ccccc3)c3cc(Cl)ccc32)c1` (stereo partly shown) [compound 102, N-[[3-[(2-amino-3-mercapto-1-oxopropyl)methylamino]-2,3-dihydro-2-oxo-5-phenyl-7-chloro-1H-1,4-benzodiazepin-1-yl]methyl]-3-methylbenzene], for which the EC50 under setting [1] was found to be 0.11 µM and the 50% effective concentration (EC50) under setting [2] was found to be 0.038 µM.

As for `CN(C(=O)[C@@H](N)CS)C1N=C(c2ccccc2)c2cc(Cl)ccc2N(Cc2cccc(C(F)(F)F)c2)C1=O` (stereo partly shown) [compound 103, N-[[3-[(2-amino-3-mercapto-1-oxopropyl)methylamino]-2,3-dihydro-2-oxo-5-phenyl-7-chloro-1H-1,4-benzodiazepin-1-yl]methyl]-3-trifluoromethylbenzene], the EC50 by setting is: under setting [1], 0.0074 µM; under setting [2], 0.0074 µM.

Turning to `Cc1ccc(CN2C(=O)C(N(C)C(=O)[C@@H](N)CS)N=C(c3ccccc3)c3cc(Cl)ccc32)cc1` (stereo partly shown) [compound 104, N-[[3-[(2-amino-3-mercapto-1-oxopropyl)methylamino]-2,3-dihydro-2-oxo-5-phenyl-7-chloro-1H-1,4-benzodiazepin-1-yl]methyl]-4-methylbenzene], the concentration giving a half-maximal response (EC50) under setting [1] came out at 0.0048 µM and the concentration for a half-maximal effect (EC50) under setting [2] is 0.0048 µM.

`CN(C(=O)[C@@H](N)CS)C1N=C(c2ccccc2)c2cc(Cl)ccc2N(Cc2ccccc2Cl)C1=O` (stereo partly shown) [compound 107, N-[[3-[(2-amino-3-mercapto-1-oxopropyl)methylamino]-2,3-dihydro-2-oxo-5-phenyl-7-chloro-1H-1,4-benzodiazepin-1-yl]methyl]-2-chlorobenzene]: the half-maximal effective concentration (EC50) is 0.006 µM under setting [1] and 0.006 µM under setting [2].

In the case of `CSCC[C@H](NC(=O)CN1C(=O)C(N(C)C(=O)[C@@H](N)CSSC(C)(C)C)C=C(c2ccccc2F)c2cc(Cl)ccc21)C(=O)OC1CCCCC1` (stereo partly drawn) [compound 113, N-[[3-[(2-amino-3-tert-butylthiomercapto-1-oxopropyl)methylamino]-2,3-dihydro-2-oxo-5-(2'-fluorophenyl)-7-chloro-1H-1,4-benzazepin-1-yl]acetyl]-L-methionine cyclohexyl ester], the half-maximal effective concentration (EC50) runs as follows: under setting [1], over 3 µM; under setting [2], over 3 µM.

As for `CSCC[C@H](NC(=O)CN1C(=O)C(N(C)C(=O)[C@@H](N)CSSC(C)(C)C)N=C(c2ccccc2)c2ccccc21)C(=O)OC(C)(C)C` (stereo partly drawn) [compound 118, N-[[3-[(2-amino-3-tert-butylthiomercapto-1-oxopropyl)methylamino]-2,3-dihydro-2-oxo-5-phenyl-1H-1,4-benzodiazepin-1-yl]acetyl]-L-methionine tert-butyl ester], under setting [2], the EC50 is 0.9 µM.
